In US12372533B2, “Identification of immunogenic mutant peptides using genomic, transcriptomic and proteomic information” (Genentech, Inc., priority 2014, dated 2025):
Where a SMILES comes first, the peptide text is derived from it.

Legend:
Type in all cases: in vivo, mouse
wild type C57BL/6 mice = experiment: Immunization of mice with long peptides plus adjuvant, CD8 T cell response by MHCI/peptide-specific dextramers; details: long peptides encoding the mutated epitopes plus adjuvant, day 0 and day 14, compared to adjuvant alone; FIG. 4A
MC-38 tumors = experiment: Peptide-specific CD8 tumor-infiltrating cells (TILs) in MC-38 tumors, dextramer staining; details: for peptide-specific CD8 T cells in the tumor bed: FIG. 4B
Description: (§1) The immunogenicity of these mutated peptides was confirmed in the context of the tumor by analyzing tumor-infiltrating cells (TILs).
C57BL/6 mice were implanted subcutaneously on the right flank with 1×10^5 MC-38 tumor cells. The whole tumor was isolated and digested with collagenase and DNAase to isolate TILs. TILs were stained with dextramers (as described above) followed by antibodies against CD45, Thy1.2, CD4, CD8 (BD Biosciences), PD-1 (eBiosciences) and TIM-3 (R&D Systems). Live/dead stain was used to gate on live cells.

TRAMP-C1 tumors = experiment: Peptide-specific CD8 tumor-infiltrating cells in syngeneic TRAMP-C1 tumors
Description: as §1

## CC(C)C[C@H](NC(=O)[C@@H](NC(=O)[C@@H](NC(=O)[C@H](CC(=O)O)NC(=O)[C@H](CC(N)=O)NC(=O)[C@H](C)NC(=O)[C@H](CC(C)C)NC(=O)[C@H](CCC(N)=O)NC(=O)[C@H](C)N)C(C)C)C(C)C)C(=O)O [Reps1, AQLANDVVL] (H-AQLANDVVL-OH; N-terminus and C-terminus assumed)
Wild type C57BL/6 mice
  CD8 T cell response: strong CD8 T cell responses
MC-38 tumors
  peptide-specific CD8 T cells in the tumor bed: enriched in the tumor bed

## ASMTNMELM [Adpgk, mutant peptide presented on MHCI (H-2Db) in the MC-38 cell line]
Wild type C57BL/6 mice
  CD8 T cell response: strong CD8 T cell responses
MC-38 tumors
  relative abundance of peptide-specific CD8 T cells among Reps1, Adpgk and Dpagt1: most abundant of the three
  peptide-specific CD8 T cells in the tumor bed: enriched in the tumor bed
TRAMP-C1 tumors
  Adpgk-specific CD8 T cells in tumor: no Adpgk-specific CD8 T cells were detected

## SIIVFNLL [Dpagt1, mutant peptide presented on MHCI (H-2Kb) in the MC-38 cell line]
Wild type C57BL/6 mice
  CD8 T cell response: weak CD8 T cells response
MC-38 tumors
  peptide-specific CD8 T cells in the tumor bed: enriched in the tumor bed
